Data published in US20060083759A1, “Stabilization of the profile of release of active substances from a formulation” (priority 2002, published 2006).

Test: release (dissolution) of clarithromycin from tablets at aging / stability testing
Type: physicochemical
Conditions: for change of tablet dissolution at aging: clarithromycin particle size over 200 μm
Description: By comparing the profiles it has been established that the release rate of a high dosage active substance being poorly soluble in an aqueous medium from a formulation changes with aging, which is even more expressed in the conditions of an accelerated stability assay.
Thus recrystallization is kept at the lowest possible level. In the case of micronizing clarithromycin with large particles also the particle porosity and brittleness are reduced. Micronized clarithromycin can either be already the product of a basic synthesis process or it may be micronized later from clarithromycin with large particles.

changes in the release rate (particle size d(0.9) up to about 30 μm at the most, humidified with a minimum amount of water): minimized | change of tablet dissolution at aging (tablets made by aqueous granulation): noticeably decreases | change of tablet dissolution at aging (tablets made by direct tabletting): noticeably increases
Structure (SMILES): CC[C@H]1OC(=O)[C@H](C)[C@@H](O[C@H]2C[C@@](C)(OC)[C@@H](O)[C@H](C)O2)[C@H](C)[C@@H](O[C@@H]2O[C@H](C)C[C@H](N(C)C)[C@H]2O)[C@](C)(OC)C[C@@H](C)C(=O)[C@H](C)[C@@H](O)[C@]1(C)O [clarithromycin]
